We go through six compounds from patent US7687514B2, “Benzimidazole derivatives” (Banyu Pharmaceuticals Co., Ltd., priority 2002, dated 2010).

Each structure is given as a SMILES string. Where two headings read alike, the source gives them in different places.

The target in data set [1] is T1, human NPY Y5 receptor (Homo sapiens, UniProt Q15761).
T1 construct: expressed in transfected cells; host or cells: COS-7, CHO and LM(tk-)
T1 sequence (Q15761 1-445): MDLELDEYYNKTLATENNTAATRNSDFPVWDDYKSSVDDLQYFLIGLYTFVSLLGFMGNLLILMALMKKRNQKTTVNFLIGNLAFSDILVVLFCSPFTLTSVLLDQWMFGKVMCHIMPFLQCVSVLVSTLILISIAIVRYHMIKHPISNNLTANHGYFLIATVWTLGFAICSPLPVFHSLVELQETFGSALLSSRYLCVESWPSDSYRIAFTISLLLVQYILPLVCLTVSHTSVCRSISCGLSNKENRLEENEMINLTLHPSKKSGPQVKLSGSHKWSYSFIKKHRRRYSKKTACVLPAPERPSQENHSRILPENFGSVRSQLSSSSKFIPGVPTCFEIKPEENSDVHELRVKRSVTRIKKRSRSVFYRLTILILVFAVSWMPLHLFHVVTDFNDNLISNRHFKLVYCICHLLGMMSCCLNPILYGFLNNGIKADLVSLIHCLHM
The data set can be described thus: NPY binding inhibition test ([125I]peptide YY binding to membranes of NPY Y5 receptor expressing cells). The conditions noted are these: 25° C., 2 hours, membrane of NPY Y5 receptor expressing cells, read-out: IC50 against specific peptide YY binding. From the text: Pharmacological Test 1 (NPY Binding Inhibition Test)
cDNA sequence encoding human NPY Y5 receptor (c.f. International patent publication number WO96/16542) was cloned into expression vectors pcDNA3, pRc/RSV (made by Invitrogen Inc.) and pCI-neo (made by Promega Inc.). The expression vectors thus obtained were transfected to host cells COS-7, CHO and LM(tk-) (American Type Culture Collection) by cationic lipid method (Proceedings of the National Academy of Sciences of the United States of America, 84: 7413(1987)) to give NPY Y5 receptor expression cells.
A membrane sample prepared from the cells which expressed NPY Y5 receptor was incubated together with a test compound and [^125I]peptide YY (made by NEN) (20,000 cpm) in an assay buffer (25 mM Tris buffer, pH 7.4, containing 10 mM magnesium chloride, 1 mM phenylmethylsulfonyl fluoride, 0.1% bacitracin and 0.5% bovine serum albumin) at 25° C. for 2 hours, then filtered through a glass filter GF/C and washed with 5 mM Tris buffer (pH 7.4) containing 0.3% BSA. The radioactivity of the cake on the glass filter was measured. Non-specific binding was measured in the presence of 1 μM peptide YY, and a 50% Inhibitory Concentration (IC50) of the test compound against specific peptide YY binding was determined (Endocrinology, 131: 2090(1992)).

Data set [2] in a line: Pharmacokinetics test (plasma concentration after oral or intravenous administration). The conditions noted are these: rat, male SD rats. The data set is classed as in vivo. As for the experimental part:
Pharmacological Test 3 (Pharmacokinetics Test)
A test compound was orally or intravenously administered to male SD rats (7-10 weeks old, 200-400 g) which abstained from food overnight. About 100 μL of blood was collected from the tail vein at predetermined time, using a heparinized capillary. The blood was centrifuged (4° C., 6,000 r.p.m., 10 minutes) to collect the plasma, to which was added 3-fold amount of ethanol containing an internal standard. The mixture was stirred, allowed to stand at −20° C. for 20 minutes, and then centrifuged (4° C., 10,000 r.p.m., 10 minutes). The supernatant was analyzed by LC/MS/MS, and the concentration of the test compound in the plasma was measured using a relative calibration curve.

Data set [3] in a line: Brain/cerebrospinal fluid transport test. The conditions noted are these: rat, 2 hours after oral administration (10 mg/kg); for concentration at 2 h: male, SD. The class given is in vivo, male SD rats. As for the experimental part:
Pharmacological Test 4 (Brain/Cerebrospinal Fluid Transport Test)
A test compound was orally or intravenously administered to male SD rats (7-10 weeks old, 200-400 g), and whole blood was collected from the abdominal aorta of said rats anesthetized with ether at predetermined time, using a heparin-treated syringe. Then, the head skin was cut open, and a dental 30 G needle was inserted between the cervical vertebrae, and it was further inserted into the cavum subarachnoideale. After 50 to 100 μL cerebrospinal fluid had been collected by a 1 ml-syringe through a tube connected to said dental 30 G needle, the brain was extracted. The blood sample was centrifuged (4° C., 6,000 r.p.m., 10 minutes) to collect the plasma, to which was added 3-fold amount of ethanol containing an internal standard, and the mixture was stirred. The brain sample was homogenized after addition of 2 ml water, an aliquot of the homogenate was taken and 3-fold amount of ethanol containing an internal standard was added thereto and stirred. The cerebrospinal fluid was stirred after adding 3-fold amount of ethanol containing an internal standard. The samples thus obtained were allowed to stand at −20° C. for 20 minutes, and then centrifuged (4° C., 12,000 g, 10 minutes). The supernatant was analyzed by LC/MS/MS, and the concentration of the test compound in the plasma, brain, and cerebrospinal fluid were measured by the method using a relative calibration curve.

Take `O=C1OC2(CCC(c3nc4cnc(-c5ccccc5F)nc4[nH]3)CC2)c2ccccc21` (stereo not drawn) [Example 8, Trans-2-(2-fluorophenyl)-8-[3′-oxospiro[cyclohexane-1,1′(3′H)-isobenzofuran]-4-yl]purine]: in data set [1], the IC50 (as a rule, the concentration that inhibits the measured activity by half) amounted to 1.8 nM. Consider `O=C1OC2(CCC(c3nc4cnc(-c5ccccc5)nc4[nH]3)CC2)c2ccccc21` (stereo not drawn) [Example 6, trans-8-[3′-oxospiro[cyclohexane-1,1′(3′H)-isobenzofuran]-4-yl]-2-phenylpurine], for which the half-inhibitory concentration (IC50) in data set [1] turned out to be 2.2 nM. In addition, the bioavailability – broadly, dose-corrected exposure relative to a reference, in per cent – in data set [2] (oral or intravenous administration) is 78%. The half-life (in general, how long it takes for the measured level to halve) in data set [2] (read-out: half-life in the blood (converted)) was 180 min. For the same compound, the concentration at 2 h in data set [3] (cerebrospinal fluid, read-out: concentration in the cerebrospinal fluid) is 33 nM; in data set [3] (plasma, read-out: concentration in the plasma), 2770 nM. Also, the “concentration in the brain” value in data set [3] is on record as 1.10 nmol/g. Take `O=C1OC2(CCC(c3nc4ccc(-c5ccccc5F)nc4[nH]3)CC2)c2cnccc21` (stereo not drawn) [Example 27, Trans-5-(2-fluorophenyl)-2-[3-oxospiro[6-azaisobenzofuran-1(3H),1′-cyclohexan]-4′-yl]imidazo[4,5-b]pyridine]: the IC50 in data set [1] was 0.72 nM. Same read-out and setting: as for `O=C1OC2(CCC(c3nc4cnc(-c5ccccc5F)nc4[nH]3)CC2)c2cnc(F)cc21` (stereo not drawn) [Example 20, Trans-8-[5-fluoro-3-oxospiro[6-azaisobenzofuran-1(3H),1′-cyclohexan]-4′-yl]-2-(2-fluorophenyl)purine], the figure is 2.3 nM; as for `O=C1OC2(CCC(c3nc4cnc(-c5cc(F)ccc5F)nc4[nH]3)CC2)c2cnccc21` (stereo not drawn) [Example 17, Trans-2-(2,5-difluorophenyl)-8-[3-oxospiro[6-azaisobenzofuran-1(3H),1′-cyclohexan]-4′yl]purine], 2.7 nM. Same read-out and setting: as for `O=C1OC2(CCC(c3nc4cnc(-c5ccc(F)cc5)nc4[nH]3)CC2)c2cnccc21` (stereo not drawn) [Example 13, Trans-2-(4-fluorophenyl)-8-[3-oxospiro[6-azaisobenzofuran-1(3H),1′-cyclohexan]-4′-yl]purine], the figure is 2.9 nM.
